Measurements as given in patent publication US10668094B2, “Selective inhibitors of Alpha2-containing isoforms of Na,K-ATPase and use thereof for reduction of intraocular pressure” (Yeda Research and Development Co. Ltd., priority 2015, dated 2020).
Where “and” joins values, the source holds several entries; their conditions need not be identical. Equal values may be shown once. Read-outs that look alike come from different tables or passages of the source.

What was measured:
[1] = target: human Na,K-ATPase α1β1FXYD1 (Homo sapiens (Human), UniProt P05023); assay type: biochemical
[2] = target: human Na,K-ATPase α2β1FXYD1 (Homo sapiens, UniProt P50993); assay type: biochemical
[3] = system: human Na,K-ATPase α2β1FXYD1; assay type: biochemical
[4] = target: human Na,K-ATPase α2β2FXYD1 (Homo sapiens (Human), UniProt P50993); assay type: biochemical
[5] = target: human Na,K-ATPase α2β3FXYD1 (Homo sapiens (Human), UniProt P50993+P54709); test: biochemical; assay type: biochemical
[6] = target: Na,K-ATPase in bovine ciliary NPE cells (Bos taurus, UniProt A2VDL6); test: biochemical
[7] = target: Na,K-ATPase in bovine ciliary NPE cells (Bos taurus, UniProt Q08DA1); test: biochemical
[8] = system: Na,K-ATPase in bovine ciliary NPE cells; test: biochemical; settings: 1 site model; read-out: Ki, nM ± SEM
[9] = system: 4AP-induced IOP in rabbits; assay type: in vivo, rabbit; settings: one drop topically prior to 4AP
basal IOP in rabbits = test: Basal IOP in rabbits, topical administration; assay type: in vivo, rabbit
tissues of the eye = test: Histological examination of eye tissues after topical application for one week; assay type: in vivo, rabbit; settings: one drop of 1 mM daily for one week
Description: In order to assess whether topical application of DcB damaged the tissues of the eye including cornea, iris, lens, cilary body, retina, choroid and sclera, a histological examination was conducted after topical application, using one drop of 1 mM DcB daily for one week in one eye of each animal, with the other eye treated topically with one drop of PBS and serving as the control. Animals were sacrificed, eyes were removed, fixed in 10% neutral buffered formalin, processed routinely for histological examination, trimmed at 4 μm, and stained with hematoxylin and eosin.

**Q.** What does the source list for CC1CN(C2CCC2)CCC(O[C@@H]2[C@H](C)O[C@@H](O[C@@H]3[C@H](C)O[C@@H](O[C@H]4CC[C@@]5(C)C(CCC6C5C[C@H](O)[C@]5(C)[C@@H](C7=CC(=O)OC7)CC[C@]65O)C4)C[C@@H]3O)C[C@@H]2O)O1 (some centres unmarked) [DcB]?
**A.** Ki for α1β1 lower than for digoxin [1]: 2-3 fold; Ki ([1]; read-out: Ki in nM ± SEM α1β1): 135 ± 11 nM; Ki ([1]; read-out: Ki of α1β1FXYD1): 135 ± 11 nM; Ki ([2]; read-out: Ki in nM ± SEM α2β1): 8 ± 1.25 nM; Ki ([2]; read-out: Ki of α2β1FXYD1): 8 ± 1.25 nM; Selectivity Ki ratio α1β1/α2β1 [3]: 16.9; Selectivity Ki ratio α1β1/α2β2 [4]: 22.2; Ki ([4]; read-out: Ki in nM ± SEM α2β2): 6 ± 1 nM; Ki for α2β3 lower than for digoxin [5]: about 10 fold; Selectivity Ki ratio α1β1/α2β3 [5]: 33.6; selectivity for α2β3 over α1β1 (Ki α1β1:α2β3 ratio) [5]: 33 fold; Ki ([5]; read-out: Ki in nM ± SEM α2β3): ~4 nM and 4 nM; Ki [6]: 6.9 ± 2 nM; Ki ([6]; read-out: Ki α2, 2 sites model): 6.9 nM; Ki [7]: 151 ± 7.6 nM; Ki [8]: 17.3 ± 2.5 nM; concentration that prevents the 4AP-induced rise in IOP [9]: 0.01 mM; time after which IOP returned to the control value (basal IOP in rabbits; 1 mM DcB, 0.005% Latanoprost): 12 h; effect on basal IOP at higher concentration (basal IOP in rabbits; 2 mM): reduces the IOP similarly to 1 mM DcB; steady-state IOP as % of the unchanged control values (basal IOP in rabbits; after 3-8 hours): 75-80%; steady-state IOP lower than basal IOP (basal IOP in rabbits; after 3-8 hours, basal IOP 17-18 mmHg, 1 mM DcB, 0.005% Latanoprost): 3.5±0.15 mmHg; effect on lowering basal IOP (basal IOP in rabbits; one drop of 1 mM solution, other eye PBS): notable effect; reduction of basal IOP (basal IOP in rabbits; rabbit with a basal IOP of 17 mm Hg): about 4 mm Hg; more effective than Latanoprost in reducing basal IOP (basal IOP in rabbits; relative to Latanoprost): about 25%; reduction of basal IOP (basal IOP in rabbits; topical, test period of 4-5 hours): 20-25%; histological differences between treated and untreated eyes (tissues of the eye): No significant histological differences were observed
